Source: patent US10626094B2 (La Jolla Institute of Allergy & Immunology, priority 2014, dated 2020)
Read-outs that look alike come from different tables or passages of the source.

Molecular target: LMPTP-A (Low Molecular Weight Protein Tyrosine Phosphatase-A) enzyme (Homo sapiens (Human), UniProt P24666)
Assay: LMPTP primary screening / LMPTP (OMFP) enzyme inhibition assay, fluorescence intensity
Type: biochemical
Conditions: LMPTP-A, OMFP substrate, method of Example 2
How it was run: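 Single-concentration screen, test compounds 20 μM final, […]. Enzyme (0.625 nM) and OMFP (400 μM) react 50 min at room temp, dark, in Bis-Tris buffer pH 6.0 containing DTT 1 mM and Triton X-100 0.01%. Read-out: fluorescence intensity.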

LMPTP-A (Low Molecular Weight Protein Tyrosine Phosphatase-A) enzyme, sequence (P24666 whole entry): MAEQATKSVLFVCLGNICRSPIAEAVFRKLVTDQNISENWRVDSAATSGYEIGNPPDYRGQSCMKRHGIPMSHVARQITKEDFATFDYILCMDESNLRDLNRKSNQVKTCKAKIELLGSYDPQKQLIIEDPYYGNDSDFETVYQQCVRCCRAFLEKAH

Molecule | IC50 (read-out: IC50) [nM] | IC50 (IC50 (nM)) [nM]
CC(=O)Nc1ccc(-c2cc(NCCCN3CCCCC3)c3ccccc3n2)cc1 [Compound I117] | 801 to 5000 | 
CC(=O)Nc1cc(C(=O)O)cc(-c2cc(NCCCN3CCCCC3)c3ccccc3n2)c1 [Compound I250] | 801 to 5000 | 
Fc1ccc(Nc2cc(-c3ccccc3C(F)(F)F)nc3ccccc23)cc1 [Compound G34, (4-Fluoro-phenyl)-[2-(2-trifluoromethyl-phenyl)-quinolin-4-yl]-amine] | 801 to 5000 | 
COc1ccc(-c2cc(Nc3ccc(F)c(Cl)c3)c3ccccc3n2)cc1 [Compound G49, (3-chloro-4-fluorophenyl)[2-(4-methoxyphenyl)(4-quinolyl)]amine] | 801 to 5000 | 
O=C(O)c1cccc(-c2cc(NCCCN3CCCCC3)c3ccccc3n2)c1 [Compound I128] | 801 to 5000 | 
NCc1ccc(-c2cc(NCCCN3CCCCC3)c3ccccc3n2)cc1 [Compound I148] | 200 to 800 | 
CCN(CC)S(=O)(=O)c1ccccc1-c1cc(NCCCN2CCCCC2)c2ccccc2n1 [Compound I240] | > 5000 | 
CN(C)Cc1cccc(Nc2cc(-c3cc(C(F)(F)F)cc(C(F)(F)F)c3)nc3ccccc23)c1 [Compound I42, {[3-({2-[3,5-bis(trifluoromethyl)phenyl](4-quinolyl)}amino)phenyl]methyl}dimethylamine] | > 5000 | 
COc1ccc(-c2cc(Nc3ccncn3)c3ccccc3n2)cc1 [Compound G70, [2-(4-methoxyphenyl)(4-quinolyl)]pyrimidin-4-ylamine] | 801 to 5000 | 
Fc1cc(Cl)ccc1-c1cc(NCCCc2cccnc2)c2ccccc2n1 [Compound I204, [2-(4-chloro-2-fluorophenyl)(4-quinolyl)](3-(3-pyridyl)propyl)amine] | 801 to 5000 | 
(2-fluoro-4-{4-[(3-piperidylpropyl)amino](2-quinolyl)}phenyl)-N-methylcarboxamide [Compound I228] | 801 to 5000 | 
COc1ccc(-c2cc(Nc3ccccn3)c3ccccc3n2)cc1 [Compound G63, [2-(4-Methoxy-phenyl)-quinolin-4-yl]-pyridin-2-yl-amine] |  | 801 to 5000
CCN(CC)Cc1cccc(Nc2cc(-c3ccc(OC)cc3)nc3ccccc23)c1 [Compound G61, (3-Diethylaminomethyl-phenyl)-[2-(4-methoxy-phenyl)-quinolin-4-yl]-amine] | 801 to 5000 | 
COc1ccc(-c2cc(Nc3cccc(CN(C)C)c3)c3ccccc3n2)cc1 [Compound G58, [(3-{[2-(4-methoxyphenyl)(4-quinolyl)]amino}phenyl)methyl]dimethylamine] | 200 to 800 | 
CCN1CCC(Cc2cccc(Nc3cc(-c4ccc(OC)cc4)nc4ccccc34)c2)CC1 [Compound I30, {3-[(1-ethyl(4-piperidyl))methyl]phenyl}[2-(4-methoxyphenyl)(4-quinolyl)]amine] | 200 to 800 | 
CN(C)Cc1ccc(Nc2cc(-c3cccc(Cl)c3)nc3ccccc23)cc1 [Compound I16, [(4-{[2-(3-chlorophenyl)(4-quinolyl)]amino}phenyl)methyl]dimethylamine] | 801 to 5000 | 
[2-(3-chloro-2-prop-2-enyloxy(4-pyridyl))(4-quinolyl)](3-piperidylpropyl)amine [Compound I91] | > 5000 | 
c1ccc2sc(-c3cc(NCCCN4CCCCC4)c4ccccc4n3)cc2c1 [Compound I140] | 801 to 5000 | 
Cc1nc(C)c(-c2cc(NCCCC3CCCNC3)c3ccccc3n2)s1 (centres unmarked) [Compound I176, [2-(2,4-dimethyl(1,3-thiazol-5-yl))(4-quinolyl)](3-piperidylpropyl)amine] | 801 to 5000 | 

Molecule | IC50 (read-out: IC50) [nM] | IC50 (IC50 (nM)) [nM]
CCNC(=O)c1ccc(-c2cc(NCCCN3CCCCC3)c3ccccc3n2)cc1F [Compound I229] | 801 to 5000 | 
CN(C)c1cc(-c2ccc(OC(F)(F)F)cc2)nc2ccccc12 [Compound G5, N,N-dimethyl-2-(4-(trifluoromethoxy)phenyl)quinolin-4-amine] | 801 to 5000 | 
{2-[3-chloro-2-(phenylmethoxy)(4-pyridyl)](4-quinolyl)}(3-piperidylpropyl)amine [Compound I88] | 801 to 5000 | 
COc1ccc(-c2cc(Nc3ccc(C)cc3)c3ccccc3n2)cc1 [Compound G43, [2-(4-methoxyphenyl)(4-quinolyl)](4-methylphenyl)amine] | 801 to 5000 | 
[2-(2,6-dichlorophenyl)(4-quinolyl)](3-piperidylpropyl)amine [Compound I100] | > 5000 | 
COc1ccc(-c2cc(Nc3ccc(OC(C)C)cc3)c3ccccc3n2)cc1 [Compound G44, [2-(4-methoxyphenyl)(4-quinolyl)][4-(methylethoxy)phenyl]amine] | 801 to 5000 | 
c1ccc2c(NCCCN3CCCCC3)cc(-c3ccc4sccc4c3)nc2c1 [Compound I247] | 200 to 800 | 
COc1ccc(-c2cc(NCc3ccc(CN4CCOCC4)cc3)c3ccccc3n2)cc1 [Compound I211, [2-(4-methoxyphenyl)(4-quinolyl)]{[4-(morpholin-4-ylmethyl)phenyl]methyl}amine] | 801 to 5000 | 
Cc1nc(C)c(-c2cc(NCCCN3CCCCC3)c3ccccc3n2)s1 [Compound G20] | 801 to 5000 | 
COc1ccc(-c2cc(Nc3ccn(C)n3)c3ccccc3n2)cc1 [Compound G46] | 801 to 5000 | 
COc1ccc(-c2cc(Nc3ccc(CC4CCN(C(C)=O)CC4)cc3)c3ccccc3n2)cc1 [Compound I34, 1-acetyl-4-[(4-{[2-(4-methoxyphenyl)(4-quinolyl)]amino}phenyl)methyl]piperidine] | 801 to 5000 | 
CN1CCC(Cc2cccc(Nc3cc(-c4cccc(Cl)c4)nc4ccccc34)c2)CC1 [Compound I18, [2-(3-chlorophenyl)(4-quinolyl)]{3-[(1-methyl(4-piperidyl))methyl]phenyl}amine] | 801 to 5000 | 
COc1ccc(-c2cc(Nc3cccc(CC4CCN(C(C)=O)CC4)c3)c3ccccc3n2)cc1 [Compound I29, 1-acetyl-4-[(3-{[2-(4-methoxyphenyl)(4-quinolyl)]amino}phenyl)methyl]piperidine] | 200 to 800 | 
FC(F)(F)c1ccc(C(F)(F)F)c(-c2cc(Nc3cccc(CC4CCN(Cc5ccccc5)CC4)c3)c3ccccc3n2)c1 [Compound I40, {2-[2,5-bis(trifluoromethyl)phenyl](4-quinolyl)}(3-{[1-benzyl(4-piperidyl)]methyl}phenyl)amine] | > 5000 | 
FC(F)(F)c1ccc(-c2cc(Nc3ccccc3CC3CCNCC3)c3ccccc3n2)c(C(F)(F)F)c1 [Compound I55, {2-[2,4-bis(trifluoromethyl)phenyl](4-quinolyl)}[2-(4-piperidylmethyl)phenyl]amine] | > 5000 | 
FC(F)(F)Oc1cccc(-c2cc(NCCCN3CCCCC3)c3ccccc3n2)c1 [Compound G3, (3-Piperidin-1-yl-propyl)-[2-(3-trifluoromethoxy-phenyl)-quinolin-4-yl]-amine] | 801 to 5000 | 
COc1ccc(-c2cc(Nc3cccc(C)n3)c3ccccc3n2)cc1 [Compound G67, [2-(4-methoxyphenyl)(4-quinolyl)](6-methyl(2-pyridyl))amine] | 801 to 5000 | 
NC(=O)c1ccc(-c2cc(Nc3cccc(CN4CCCC4)c3)c3ccccc3n2)cc1 [Compound I5, 4-(4-{[3-(pyrrolidinylmethyl)phenyl]amino}-2-quinolyl)benzamide] | > 5000 | 
CN(C)c1ccc(-c2cc(N(C)C)c3ccccc3n2)cc1 [Compound G11, [2-(4-Dimethylamino-phenyl)-quinolin-4-yl]-dimethyl-amine] | > 5000 | 

Molecule | IC50 (read-out: IC50) [nM] | IC50 (IC50 (nM)) [nM]
CN(C)S(=O)(=O)c1ccc(C(F)(F)F)c(-c2cc(NCCCN3CCCCC3)c3ccccc3n2)c1 [Compound I106] | 801 to 5000 | 
COc1ccc(-c2cc(NCCCc3cccnc3)c3ccccc3n2)cc1 [Compound I203] | 801 to 5000 | 
NC(=O)c1ccc(-c2cc(NCc3ccc(CN4CCOCC4)cc3)c3ccccc3n2)cc1 [Compound I212, 4-[4-({[4-(morpholin-4-ylmethyl)phenyl]methyl}amino)-2-quinolyl]benzamide] | > 5000 | 
[2-(4-methoxyphenyl)(4-5,6,7,8-tetrahydroquinolyl)][4-(piperidylmethyl)phenyl]amine [Compound I207] | 801 to 5000 | 
COc1ccc(-c2cc(Nc3ccnnc3)c3ccccc3n2)cc1 [Compound G71, [2-(4-methoxyphenyl)(4-quinolyl)]pyridazin-4-ylamine] | 801 to 5000 | 
Fc1cccc(-c2cc(NCCCN3CCCCC3)c3ccccc3n2)c1C(F)(F)F [Compound I223] | 801 to 5000 | 
O=[N+]([O-])c1ccc(C(F)(F)F)c(-c2cc(NCCCN3CCCCC3)c3ccccc3n2)c1 [Compound I152] | 801 to 5000 | 
NC(=O)c1ccc(-c2cc(NCCCN3CCCCC3)c3ccccc3n2)cc1Cl [Compound I82] | 200 to 800 | 
c1cc2c3c(cc(-c4cc(NCCCN5CCCCC5)c5ccccc5n4)cc3c1)CC2 [Compound I256] | 200 to 800 | 
C1=C(c2cc(NCCCN3CCCCC3)c3ccccc3n2)OCC1 [Compound I241] | > 5000 | 
COc1ccc(-c2cc(NCCCc3ccncc3)c3ccccc3n2)cc1 [Compound I200, [2-(4-methoxyphenyl)(4-quinolyl)](3-(4-pyridyl)propyl)amine] | 801 to 5000 | 
Fc1ccc(-c2cc(NCCCN3CCCCC3)c3ccccc3n2)c(F)n1 [Compound I90] | 801 to 5000 | 
Fc1cccc(-c2cc(NCCCN3CCCCC3)c3ccccc3n2)n1 [Compound I97] | 801 to 5000 | 
FC(F)(F)c1cc(Cl)ccc1-c1cc(NCCCN2CCCCC2)c2ccccc2n1 [Compound I119] | 801 to 5000 | 
CC(C)C(=O)Nc1ccc(-c2cc(NCCCN3CCCCC3)c3ccccc3n2)cc1 [Compound I56] | 801 to 5000 | 
O=C(NCCCO)c1ccc(-c2cc(NCCCN3CCCCC3)c3ccccc3n2)cc1 [Compound I67] | 200 to 800 | 
COc1ccc(-c2cc(NC(C)c3ccccc3)c3ccccc3n2)cc1 (centres unmarked) [Compound G76] | 801 to 5000 | 
COc1ccc(-c2cc(Nc3cccc(C#N)c3)c3ccccc3n2)cc1 [Compound G38, 3-[2-(4-Methoxy-phenyl)-quinolin-4-ylamino]-benzonitrile] | 200 to 800 | 
